Measured values as given in patent US20100311726A1, “REDUCTION OF BETA-AMYLOID LEVELS BY TREATMENT WITH THE SMALL MOLECULE DIFFERENTIATION-INDUCING FACTOR” (priority 2007, published 2010).

Assays:
Aβ42 = assay: Secreted Aβ42 sandwich ELISA of conditioned media; assay type: cell-based, human
Method: The levels of secreted Aβ from CHO-7W cells stably overexpressing APP^751 and CHO-CAB cells that overexpress APP^751 and human BACE1 was quantified by ELISA and viewed by western blot using the monoclonal anti-APP antibody (6E10) that recognizes residues 1-17 of Aβ. Cells (5×10^5) were deposited into 6-well tissue culture dishes in triplicate and allowed to settle and grow for 24 hours. At this time, the media was aspirated and the cells were washed 2× in warm PBS. Fresh media (2 mL) and media supplemented with vehicle or DIF-1 was added to each well. […] Since DIF-1 exerts a cytostatic effect, the cell number was counted for all treatments upon removal of the conditioned media and used to normalize the levels of Aβ. […] The concentration of Aβ40 and Aβ42 was subsequently detected in triplicate using the β-Amyloid 1-40 or 1-42 Colorimetric ELISA kit (Biosource International, Inc.) according to the manufacturer's instructions.
We then looked at what effect this had on the levels of secreted soluble APP and Aβ production. […] The conditioned media was analyzed using anti-APP antibody 6E10 in order to detect total βP levels and sαAPP levels since it recognizes the amino acids 1-17 of Aβ and thus cannot detect sβAPP. […] The blots were analyzed using a phosphorimager. […]

[1] = neutral pH; cited from earlier work
[2] = tested on: notch intracellular domain (NICD); assay: Notch intracellular domain (NICD) level; assay type: cell-based
Dictyostelium discoideum = conditions: Masento et al., 1988; cited from earlier work
naïve CHO cells = assay: Flow cytometry cell cycle distribution, naive CHO; assay type: cell-based, Chinese Hamster; conditions: 25 μM overnight
Method: Naïve and CHO-7W cells were collected by trypsin/EDTA treatment and counted using a haemocytometer. The cells (1×10^5) were deposited into 10 cm tissue culture dishes containing fresh media and grown for 24 hours prior to DIF-1 treatment (25 μM). Cells were grown in the presence of DIF-1 for approximately 20 hours. Cells harvested by the trypsin/EDTA treatment were suspended in hypotonic fluorochrome solution containing 50 ug/ml of propidium iodide, 0.1% sodium citrate, and 0.1% Triton X-100. Cells (5×10^4) for each sample were analyzed for fluorescence using the Massachusetts General Hospital cytology core. Cell cycle distribution was compared between vehicle and DIF-1 treated nave CHO cells, and CHO-7W cells. The percentage of cells in G0/G1, S-phase and G2/M represents the mean cell number±the standard deviation from at least 3 separate experiments.
To determine where in the cell cycle DIF-1 acts, we assessed the cell cycle distribution of naïve CHO cells using flow cytometry (FIG. 1B). CHO cells were incubated with DIF-1 (25 μM) for the indicated periods and then harvested by the trypsin/EDTA treatment, fixed and stained with propidium iodide (PI) and fluorescence of nuclei was measured. Histogram peaks are labeled by phases (G0/G1, S and G2/M). The percentages of cell number in the cell cycle phases are shown as means+/−S.E. of three independent experiments performed in duplicate. […]

CHO-CAB cells = assay: Confocal fluorescence microscopy of CHO-CAB cells; assay type: cell-based, Chinese Hamster; conditions: 30 μM overnight
Method: CHO-CAB cells were grown on multi-well chamber slides and treated overnight with 30 μM DIF-1. The cells were fixed with 4% paraformaldehyde/PBS, permeabilized with 0.1% Triton X-100/PBS for 10 min and blocked with 5% goat serum/PBS. APP (rabbit C-terminal 8717), PDI (ER marker), GM130 (golgi marker), and ubiquitin were detected using their corresponding antibodies and Alexa Fluor-conjugated secondary antibodies. Nuclei were stained with Hoechst 33342 (Molecular Probes/Invitrogen). Confocal fluorescence images were obtained using an Olympus DSU/IX70 spinning disc confocal microscope and processed using IPLab software (Scanalytics/BD Biosciences).
Next, the effect of DIF-1 on APP trafficking and subcellular distribution was assessed. Cells were fixed with 4% paraformaldehyde/PBS, permeabilized with 0.1% Triton X-100/PBS and blocked with 5% goat serum/PBS. Confocal microscopy of CHO-CAB cells stained with APP antibodies together with the ER marker PDI or golgi marker GM130 confirmed that APP primarily co-localized with GM130 and PDI (FIG. 14A). […] ER structure upon DIF-1 treatment became highly vacuolated but to a varying degree within populations of cells.

APP = APP processing (mature APP, αCTF, βCTF) by western blot; assay type: cell-based, human; conditions: CHO-CAB

CCCCCC(=O)c1c(O)c(Cl)c(OC)c(Cl)c1O [DIF-1, 1-[3,5-dichloro-2,6-dihydroxy-4-methoxyphenyl]-1-hexanone]
reduction of secreted Aβ42 (Aβ42; CHO-7W, 30 μM overnight): 63.9±7.15% | reduction of secreted levels of Aβ42 (Aβ42; conditioned media from either CHO-7W or CHO-CAB cells): 66.9±2.6% | solubility [1]: soluble in both water and hexane | effect on notch intracellular domain (NICD) [2]: no effect | absolute specific activity in stalk-cell differentiation (Dictyostelium discoideum): sub-nanomolar range | percentage of cells in G0/G1 (naïve CHO cells): 52.6%±0.9 | ER structure (PDI marker) (CHO-CAB cells): disruption in the structure of the ER | subcellular distribution of APP (CHO-CAB cells): enriched around the nuclear periphery | effect on lactacystin-induced CTF accumulation (APP; 30 μM DIF-1 with 10 μM lactacystin): greatly reduced the effect of lactacystin | effect on ALLN-induced CTF accumulation (APP; DIF-1 with 10 μM ALLN): reduced the effect of ALLN on APP processing
